Data published in the supplement of paper PMC11061612.

How the values were obtained:
Experiment in all cases: Bliss excess, mean over the matrix (fraction); higher = more synergy
A673 (Ewing's Sarcoma) = test system: A673 (Ewing's Sarcoma)
How it was run: (§1)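 After 24 hours at 37°C and 5% CO2 in 1536-well plates, cells in DMEM/F12 or RPMI plus 10% FBS received two-drug dose matrices for 72 hours. Viability came from CellTiter-Glo 2.0 luminescence and was scaled as inhibition, anchored at 0 by vehicle wells and at 1 by blank wells. Combination Emax is taken as the second-highest inhibition in the matrix, and Bliss excess as the observed combination effect less EA + EB − EA·EB, with EA and EB the single-agent effects.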

[1] = test system: ALL-PO (B-Lymphoblastic Leukemia)
How it was run: as §1

[2] = test system: BFTC-909 (Kidney Carcinoma)
How it was run: as §1

BPH-1 (Non-Cancerous) = test system: BPH-1 (Non-Cancerous)
How it was run: as §1

[3] = test system: ESS-1 (Other Solid Carcinomas)
How it was run: as §1

[4] = test system: HH (T-Cell Non-Hodgkin's Lymphoma)
How it was run: as §1

[5] = test system: HuCCT1 (Biliary Tract Carcinoma)
How it was run: as §1

[6] = test system: KMRC-20 (Kidney Carcinoma)
How it was run: as §1

[7] = test system: KYAE-1 (Esophageal Adenocarcinoma)
How it was run: as §1

[8] = test system: LCLC-97TM1 (Non-Small Cell Lung Carcinoma)
How it was run: as §1

LOXIMVI (Melanoma) = test system: LOXIMVI (Melanoma)
How it was run: as §1

MPP-89 (Mesothelioma) = test system: MPP-89 (Mesothelioma)
How it was run: as §1

NCI-H2052 (Mesothelioma) = test system: NCI-H2052 (Mesothelioma)
How it was run: as §1

[9] = test system: NUGC-4 (Gastric Carcinoma)
How it was run: as §1

[10] = test system: OV-56 (Ovarian Carcinoma)
How it was run: as §1

[11] = test system: OVCAR-5 (Ovarian Carcinoma)
How it was run: as §1

[12] = test system: SAS (Oral Cavity Carcinoma)
How it was run: as §1

[13] = test system: SW1573 (Lung Adenocarcinoma)
How it was run: as §1

[14] = test system: SW1710 (Bladder Carcinoma)
How it was run: as §1

[15] = test system: WSU-NHL (B-Cell Non-Hodgkin's Lymphoma)
How it was run: as §1

SMILES | Bliss excess (A673 (Ewing's Sarcoma)) | Bliss excess [1] | Bliss excess [2] | Bliss excess (BPH-1 (Non-Cancerous)) | Bliss excess [3] | Bliss excess [4] | Bliss excess [5] | Bliss excess [6] | Bliss excess [7] | Bliss excess [8] | Bliss excess (LOXIMVI (Melanoma)) | Bliss excess (MPP-89 (Mesothelioma)) | Bliss excess (NCI-H2052 (Mesothelioma)) | Bliss excess [9] | Bliss excess [10] | Bliss excess [11] | Bliss excess [12] | Bliss excess [13] | Bliss excess [14] | Bliss excess [15]
Cn1cnc2c(F)c(Nc3ccc(Br)cc3Cl)c(C(=O)NOCCO)cc21 [Selumetinib] + CCN(CCO)CCCOc1ccc2c(Nc3cc(CC(=O)Nc4cccc(F)c4)[nH]n3)ncnc2c1 [AZD2811] (first compound max 10 µM, 7x7, partner max 1 µM) | -0.0233 | -0.0029 | -0.0093 | 0.0204 | -0.0617 | -0.0825 | 0.0066 | -0.059 | -0.0212 | 0.0594 | 0.012 | -0.0325 | -0.0388 | -0.0067 | -0.0677 | -0.0054 | -0.0274 | -0.0605 | -0.0548 | -0.0209
NC1(C(=O)N[C@@H](CCO)c2ccc(Cl)cc2)CCN(c2ncnc3[nH]ccc23)CC1 [Capivasertib] + CC(=O)c1c(C)c2cnc(Nc3ccc(N4CCNCC4)cn3)nc2n(C2CCCC2)c1=O [Palbociclib] (first compound max 10 µM, 7x7, partner max 10 µM) | -0.018 | -0.0252 | 0.006 | -0.0574 | -0.0479 | -0.0305 | -0.0067 | -0.0377 | -0.0168 | 0.0152 | 0.0391 | -0.0553 | -0.0171 | -0.0345 | 0.0301 | -0.0396 | -0.0211 | -0.0253 | -0.009 | -0.0671
CC(=O)c1c(C)c2cnc(Nc3ccc(N4CCNCC4)cn3)nc2n(C2CCCC2)c1=O [Palbociclib] + Cc1c2c(nn1C)CSCc1cc(n(C)n1)CSc1cc(c3ccccc3c1)OCCCc1c(C(=O)O)n(C)c3c-2c(Cl)ccc13 [AZD5991] (first compound max 10 µM, 7x7, partner max 1 µM) | -0.0903 | -0.0065 | 0.0029 | -0.0476 | -0.0067 | -0.131 | -0.0461 | -0.0782 | 0.0035 | -0.0149 | -0.0325 | -0.021 | -0.0298 | -0.0486 | -0.0824 | -0.0406 | -0.0318 | -0.0431 | -0.0405 | -0.0269
COc1cccc(OCCCN)c1-c1cc(Nc2cnc(C#N)cn2)n[nH]1 [Prexasertib] + C[C@@H]1COCCN1C2=NC(=NC(=C2)C3(CC3)[S@](=N)(=O)C)C4=C5C=CNC5=NC=C4 [AZD6738] (first compound max 1 µM, 7x7, partner max 10 µM) | -0.014 | 0.0584 | 0.0417 | -0.015 | 0.0056 | -0.0053 | -0.0108 | 0.0013 | 0.0651 | -0.0351 | -0.0165 | -0.0232 | -0.0282 | -0.0203 | 0.0148 | 0.0185 | 0.0203 | -0.0066 | 0.0092 | 0.0077
COc1cccc(OCCCN)c1-c1cc(Nc2cnc(C#N)cn2)n[nH]1 [Prexasertib] + CCc1c2c(nc3ccc(O)cc13)-c1cc3c(c(=O)n1C2)COC(=O)[C@]3(O)CC [SN-38] (first compound max 1 µM, 7x7, partner max 0.3 µM) | -0.0105 | -0.0336 | 0.0075 | 0.011 | -0.0183 | 0.0727 | -0.0044 | -0.0215 | 0.102 | 0.0863 | -0.0455 | 0.0256 | -0.0138 | -0.0568 | 0.009 | -0.0162 | -0.0246 | -0.0144 | 0.0504 | -0.0073
CN(C)CCCOc1ccc(-c2ccc3ncc4c(c3c2)n(C2CCOCC2)c(=O)n4C)cn1 [AZD0156] + O=C(c1cc(Cc2n[nH]c(=O)c3ccccc23)ccc1F)N1CCN(C(=O)C2CC2)CC1 [Olaparib] (first compound max 3 µM, partner max 3 µM) | 0.16 | 0.0594 | 0.0705 | 0.158 | 0.0655 | -0.0513 | -0.0012 | 0.0163 | 0.0247 | -0.0124 | 0.0317 | -0.0547 | -0.0064 | -0.0473 | -0.0449 | -0.0123 | 0.0188 | -0.0002 | -0.0233 | 0.403
COc1nnc2ccc(N3CCC(c4ccc(OCCN5CCN(C)C(=O)[C@H]5C)cc4)CC3)nn12 [AZD5153] + Cn1cnc2c(F)c(Nc3ccc(Br)cc3Cl)c(C(=O)NOCCO)cc21 [Selumetinib] (first compound max 1 µM, 7x7, partner max 10 µM) | 0.111 | -0.0054 | -0.0399 | -0.0385 | -0.0065 | -0.0817 | 0.0453 | -0.08 | -0.004 | -0.0694 | -0.0679 | 0.0192 | 0.0301 | 0.0186 | -0.0232 | -0.0429 | 0.0163 | -0.0062 | -0.0433 | 0.0023
COc1nnc2ccc(N3CCC(c4ccc(OCCN5CCN(C)C(=O)[C@H]5C)cc4)CC3)nn12 [AZD5153] + C[C@@H]1COCCN1C2=NC(=NC(=C2)C3(CC3)[S@](=N)(=O)C)C4=C5C=CNC5=NC=C4 [AZD6738] (first compound max 1 µM, 7x7, partner max 10 µM) | 0.0361 | 0.0106 | -0.0072 | 0.0343 | -0.0192 | -0.0324 | -0.046 | 0.0821 | -0.003 | -0.033 | -0.0413 | 0.0648 | -0.0497 | 0.0188 | 0.0824 | -0.0276 | -0.0483 | 0.109 | 0.0013 | -0.0621
COc1cccc2c1C(=O)c1c(O)c3c(c(O)c1C2=O)C[C@@](O)(C(=O)CO)C[C@@H]3O[C@H]1C[C@H](N)[C@H](O)[C@H](C)O1 [Doxorubicin] + Cc1cc2ncnn2cc1Nc1ncc2c(n1)n(C1CCOCC1)c(=O)n2C [AZD7648] (first compound max 1 µM, 7x7, partner max 10 µM) | 0.0816 | 0.143 | 0.0402 | 0.0736 | 0.0112 | -0.0305 | -0.0073 | 0.046 | 0.0242 | 0.0332 | 0.0582 | 0.0691 | 0.0122 | 0.0402 | 0.0345 | -0.0058 | 0.0996 | -0.0042 | 0.0569 | 0.0404
NC1(C(=O)N[C@@H](CCO)c2ccc(Cl)cc2)CCN(c2ncnc3[nH]ccc23)CC1 [Capivasertib] + Cn1cnc2c(F)c(Nc3ccc(Br)cc3Cl)c(C(=O)NOCCO)cc21 [Selumetinib] (first compound max 10 µM, 7x7, partner max 10 µM) | 0.0877 | 0.117 | 0.0531 | -0.0162 | -0.0183 | -0.0626 | 0.01 | -0.133 | -0.0064 | 0.0752 | 0.107 | -0.0188 | -0.0031 | 0.0363 | 0.01 | -0.028 | 0.0089 | -0.0111 | 0.0396 | 0.0544
CCN(CCO)CCCOc1ccc2c(Nc3cc(CC(=O)Nc4cccc(F)c4)[nH]n3)ncnc2c1 [AZD2811] + O=C(c1cc(Cc2n[nH]c(=O)c3ccccc23)ccc1F)N1CCN(C(=O)C2CC2)CC1 [Olaparib] (first compound max 1 µM, 7x7, partner max 10 µM) | -0.0906 | 0.0133 | 0.0468 | 0.0466 | 0.021 | -0.0353 | -0.0187 | 0.0017 | 0.0093 | 0.0148 | 0.0073 | -0.0334 | -0.0042 | 0 | -0.0081 | -0.0048 | 0.0114 | 0.0123 | 0.0073 | -0.0841
COc1nnc2ccc(N3CCC(c4ccc(OCCN5CCN(C)C(=O)[C@H]5C)cc4)CC3)nn12 [AZD5153] + C=CCn1c(=O)c2cnc(Nc3ccc(N4CCN(C)CC4)cc3)nc2n1-c1cccc(C(C)(C)O)n1 [AZD1775] (first compound max 1 µM, partner max 1 µM) | -0.055 | -0.0198 | -0.0723 | 0.0246 | -0.0749 | -0.0442 | -0.0778 | -0.0446 | -0.0142 | -0.0845 | -0.0494 | -0.0669 | -0.0882 | -0.0478 | -0.0105 | -0.0591 | -0.0302 | -0.0388 | -0.0582 | -0.0255
Cc1c2c(nn1C)CSCc1cc(n(C)n1)CSc1cc(c3ccccc3c1)OCCCc1c(C(=O)O)n(C)c3c-2c(Cl)ccc13 [AZD5991] + C[C@@H](Nc1cc(F)cc(F)c1)c1cc(C(=O)N(C)C)cc2c(=O)cc(N3CCOCC3)oc12 [AZD8186] (first compound max 1 µM, 7x7, partner max 3 µM) | 0.0129 | -0.0248 | 0.0188 | 0.0078 | -0.045 | 0.105 | 0.021 | 0.0456 | -0.0125 | -0.003 | -0.0227 | 0.0083 | 0.0011 | -0.0056 | 0.017 | -0.0106 | 0.0062 | -0.0565 | -0.0083 | -0.0366
Cn1cnc2c(F)c(Nc3ccc(Br)cc3Cl)c(C(=O)NOCCO)cc21 [Selumetinib] + CC(C)n1c(=O)n(C)c2cnc3cc(F)c(-c4ccc(OCCCN5CCCCC5)nc4)cc3c21 [AZD1390] (first compound max 10 µM, 7x7, partner max 0.3 µM) | -0.0481 | 0.0208 | -0.024 | 0.026 | -0.0044 | -0.0536 | 0.0231 | -0.0458 | -0.026 | 0.0069 | -0.0098 | -0.069 | -0.0242 | -0.0045 | -0.0526 | 0.0017 | -0.0146 | -0.0796 | -0.059 | -0.0059
CC1(C)CCC(CN2CCN(c3ccc(C(=O)NS(=O)(=O)c4ccc(NCC5CCOCC5)c([N+](=O)[O-])c4)c(Oc4cnc5[nH]ccc5c4)c3)CC2)=C(c2ccc(Cl)cc2)C1 [Venetoclax] + C1CN(CCC1(C(=O)N[C@@H](CCO)C2=CC=C(C=C2)Cl)N)C3=NC=NC4=C3C=CN4 [Capivasertib] (first compound max 1 µM, 7x7, partner max 3 µM) | -0.0551 | 0.0446 | -0.0292 | -0.033 | -0.0498 | 0.0213 | -0.0734 | -0.0172 | -0.0582 | -0.033 | -0.0142 | -0.0361 | -0.0269 | -0.0673 | -0.0323 | -0.0649 | 0.0016 | -0.0428 | -0.0896 | -0.0282
